In paper PMC12785804, “Triterpenoids CDDO and CDDO-EA Inhibit the Replication of Hepatitis B Virus by Modulating Nucleocapsid Assembly” (International Journal of Molecular Sciences, 2025):

Assays:
[1] = target: T1, HBc protein (HBV core protein), purchased (Hepatitis B virus ayw/France/Tiollais/1979, UniProt P03146); test: SPR (Reichert4, CM5 chip); assay type: binding
T1 construct: gene C; purchased from Sino Biological; immobilised on CM5 chip

[2] = target: T2, HBc (HBV core protein) in HepAD38 lysate (Hepatitis B virus ayw/France/Tiollais/1979, UniProt P03146); test: CETSA, Western blot; assay type: biochemical; conditions: cell lysate, 30 min at room temperature, then 37-72 °C for 3 min
T2 construct: gene C; full-length core expressed from the integrated tetracycline-regulated HBV genome of HepAD38 (HepG2-derived); freeze-thaw cell lysate
T2 sequence (P03146 whole entry): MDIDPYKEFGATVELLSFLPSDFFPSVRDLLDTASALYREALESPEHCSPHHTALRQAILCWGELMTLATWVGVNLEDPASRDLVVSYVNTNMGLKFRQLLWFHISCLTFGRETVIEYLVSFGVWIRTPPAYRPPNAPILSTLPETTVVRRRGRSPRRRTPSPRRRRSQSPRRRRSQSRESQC

T1 sequence (P03146 whole entry): as above

SMILES | SPR binding [1] | thermal shift (right-shifted CETSA melting curve) ([2]; 0.4 μM compound) | thermal shift (right-shifted CETSA melting curve) ([2]; 0.8 μM compound)
CCNC(=O)[C@]12CCC(C)(C)C[C@H]1[C@H]1C(=O)C=C3[C@@]4(C)C=C(C#N)C(=O)C(C)(C)[C@@H]4CC[C@@]3(C)[C@]1(C)CC2 [CDDO-EA] | compounds CDDO-EA and CDDO exhibited weak binding kinetics to HBc protein | CDDO-EA and CDDO treatments significantly stabilized HBc protein | –
CC1(C)CC[C@]2(C(=O)O)CC[C@]3(C)[C@H](C(=O)C=C4[C@@]5(C)C=C(C#N)C(=O)C(C)(C)[C@@H]5CC[C@]43C)[C@@H]2C1 [CDDO, 2-cyano-3,12-dioxooleana-1,9-dien-28-oic acid] | compounds CDDO-EA and CDDO exhibited weak binding kinetics to HBc protein | – | CDDO-EA and CDDO treatments significantly stabilized HBc protein
